Two compounds from patent publication US12286440B2, “Penam derivative or salt thereof, pharmaceutical composition, and applications thereof” (priority 2018, dated 2025) can be followed below.

What all share (test): Antibacterial activity evaluation test, MIC by CLSI broth microdilution
Type in all cases: cell-based
Holding throughout (conditions): cation-adjusted Mueller Hinton medium, 35° C., 16 to 20 hours
Background: Broth dilution looks for growth in wells or tubes with falling amounts of substance.

In assay [1] the test system is Pseudomonas aeruginosa strain ATCC27853. As for the experimental part: (§1) The minimum inhibitory concentration (MIC) was measured according to the Clinical and Laboratory Standards Institute (CLSI) standard method by using the following broth microdilution method.
(§2) As bacteria, a Pseudomonas aeruginosa strain ATCC27853, an AmpC-derepressed Pseudomonas aeruginosa mutant strain (S-3028), an IMP-1-containing Pseudomonas aeruginosa strain (S-2838), a VIM-2-containing Pseudomonas aeruginosa strain (S-3779), a GES-19 and GES-20-containing Pseudomonas aeruginosa strain (S-3759), a CTX-M-15-containing Escherichia coli strain (TK-1747), a KPC-2-containing Klebsiella pneumoniae strain (Y-995), an OXA-48-containing Klebsiella pneumoniae strain (Y-1062), and an NDM-1-containing Klebsiella pneumoniae strain (Y-1007) were used. The test bacterial cells that had been cultured overnight on a Mueller Hinton agar medium were scraped off, suspended at a density equivalent to 0.5 McFarland standard, and diluted 10-fold, thereby obtaining an inoculum. A cation-adjusted Mueller Hinton medium containing a test compound was inoculated with 0.005 mL of the inoculum, and the cells were cultured at 35° C. for 16 to 20 hours. The minimum drug concentration at which the growth of bacteria was not visually observed was defined as MIC […].
(§3) An antibacterial activity evaluation test was performed in the same manner as in Test Example 1.

The test system of assay [2] is IMP-1-containing Pseudomonas aeruginosa strain (S-2838). How it is done: as §1, §2, §3
Assay [3] has as its system VIM-2-containing Pseudomonas aeruginosa strain (S-3779). As for the experimental part:
as §1, §2, §3

In assay [4] the test system is CTX-M-15-containing Escherichia coli strain (TK-1747). How it is done: as §1, §2, §3
For assay [5], the system named is OXA-48-containing Klebsiella pneumoniae strain (Y-1062). As for the experimental part: as §1, §2, §3
Assay [6] has as its system GES-19 and GES-20-containing Pseudomonas aeruginosa strain (S-3759). How it is done:
as §1, §2, §3

Assay [7] deals with NDM-1-containing Klebsiella pneumoniae strain (Y-1007). How it is done: as §1, §2, §3
In assay [8] the test system is KPC-2-containing Klebsiella pneumoniae strain (Y-995). How it is done:
as §1, §2, §3

In assay [9] the test system is AmpC-derepressed Pseudomonas aeruginosa mutant strain (S-3028). How it is done:
as §1, §2, §3

≈ marks a conversion by molar mass, not a printed value.

`CC(C)(O/N=C(\C(=O)N[C@@H]1C(=O)N2C[C@@](C(=O)O)(N3CCN(NC(=O)C(=O)NCCNC(=O)c4ccc(O)c(O)c4Cl)C3=O)S[C@H]12)c1csc(N)n1)C(=O)O` [Example 68, (3R,5R,6R)-6-((Z)-2-(2-aminothiazol-4-yl)-2-(((2-carboxypropan-2-yl)oxy)imino)acetamido)-3-(3-(2-((2-(2-chloro-3,4-dihydroxybenzamido)ethyl)amino)-2-oxoacetamido)-2-oxoimidazolidin-1-yl)-7-oxo-4-thia-1-azabicyclo[3.2.0]heptane-3-carboxylate]: in assay [1], the MIC, Pseudomonas aeruginosa ATCC 27853 was found to be 1 µg/mL (≈ 1.21 µM). In assay [2], this compound showed an MIC, Pseudomonas aeruginosa S-2838 of 1 µg/mL (≈ 1.21 µM). This compound gave an MIC, Pseudomonas aeruginosa S-3779 in assay [3] of 2 µg/mL (≈ 2.42 µM). The compound further gave an MIC, Escherichia coli TK-1747 in assay [4] of 1 µg/mL (≈ 1.21 µM). Further, the MIC, Klebsiella pneumoniae Y-1062 in assay [5] turned out to be 1 µg/mL (≈ 1.21 µM). Besides, the MIC, Pseudomonas aeruginosa S3759 in [6] worked out at 4 µg/mL (≈ 4.84 µM). The compound further gave an MIC, Klebsiella pneumoniae Y-1007 in [7] of under 0.06 µg/mL. Besides, the MIC, Klebsiella pneumoniae Y-995 in [8] was found to be 0.5 µg/mL (≈ 0.604 µM). In [9], this compound registered an MIC, Pseudomonas aeruginosa S-3028 of 0.25 µg/mL (≈ 0.302 µM).
`Nc1nc(/C(=N/OC2(C(=O)O)CCC2)C(=O)N[C@@H]2C(=O)N3C[C@@](C(=O)O)(N4CCN(NC(=O)C(=O)c5ccc(O)c(O)c5Cl)C4=O)S[C@H]23)cs1` [Example 19, (3R,5R,6R)-6-((Z)-2-(2-aminothiazol-4-yl)-2-((1-carboxycyclobutoxy)imino)acetamido)-3-(3-(2-(2-chloro-3,4-dihydroxyphenyl)-2-oxoacetamido)-2-oxoimidazolidin-1-yl)-7-oxo-4-thia-1-azabicyclo[3.2.0]heptane-3-carboxylate] yielded an MIC, Pseudomonas aeruginosa ATCC 27853 in [1] of 0.25 µg/mL (≈ 0.332 µM). For the same compound, the MIC, Pseudomonas aeruginosa S-2838 in assay [2] stood at 0.25 µg/mL (≈ 0.332 µM). In [3], this compound yielded an MIC, Pseudomonas aeruginosa S-3779 of 0.25 µg/mL (≈ 0.332 µM). Further, the MIC, Escherichia coli TK-1747 in assay [4] was 0.5 µg/mL (≈ 0.664 µM). The MIC, Klebsiella pneumoniae Y-1062 in [5] worked out at 0.12 µg/mL (≈ 0.159 µM). Further, the MIC, Pseudomonas aeruginosa S3759 in assay [6] worked out at 0.25 µg/mL (≈ 0.332 µM). The compound further yielded an MIC, Klebsiella pneumoniae Y-1007 in assay [7] of under 0.06 µg/mL. Moreover, in [8], the MIC, Klebsiella pneumoniae Y-995 was determined as 0.25 µg/mL (≈ 0.332 µM). Further, the MIC, Pseudomonas aeruginosa S-3028 in assay [9] is 2 µg/mL (≈ 2.66 µM).
